58 molecules from PubChem BioAssay AID977630 (Broad Institute, 2014) can be followed below.

Records with an inconclusive call do not appear. The source made the active and inactive calls.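 How the source made its calls: active means Normal-ribosome green reporter loss at least double humanized-ribosome red reporter loss, with overall culture growth inhibition under a set limit; inconclusive means no clear call, values can overlap the other calls; inactive means the rest.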

Assay [1] relates to E. coli wild-type GFP growth, mixed culture, 24 h. Put plainly: growth inhibition of wild-type GFP E. coli, H38-humanized RFP comparator, dose response, H38 mutant RFP vs wild-type GFP, cherry-pick (AID 977630).
In assay [2] the test system is E. coli humanized H38 RFP strain growth, mixed culture, 24 h. The assay is described as above.
The mark [3] stands for this setting: E. coli mixed culture total OD600 growth, 24 h.

Take `CS(=O)(=O)N1CC2CCCN2c2ccc(C(F)(F)F)cc21` (configuration not stated): the AC50 was > 100 µM (inactive) in assay [1], more than 100 µM in assay [1] (setting [3]) and more than 100 µM in assay [2].

Turning to `CCn1cc(Br)c(C(=O)Nc2ccc(C(=O)OC(C)C)cc2)n1`, the results for the AC50 in assay [1], in assay [1] (setting [3]) and in assay [2] were > 100 µM (inactive), 47.3 µM and 52 µM, respectively.

For `O=C1NC(CCc2ccccc2)C(=O)N1Cc1cccc2ccccc12` (configuration not stated), the AC50 is > 100 µM (inactive) in assay [1], 51.8 µM in assay [1] (setting [3]) and 50.1 µM in assay [2].

For the molecule `Cc1ccccc1NS(=O)(=O)c1cc(C(=O)NCCC2=CCCCC2)ccc1C`, the AC50 in assay [1] (setting [3]) and in assay [2] was more than 100 µM each time.

On to `Nc1nc2ccccc2n1CCOc1ccc(F)cc1`, for which the AC50 was > 100 µM (inactive) in assay [1] and less than 0.6 µM in assay [2].

Molecule `COC(=O)c1nc(-c2ccc(C)cc2)[nH]c1C(C)(C)C` came in with an AC50 in assay [2] of more than 100 µM.

As to `CSc1nnnn1-c1ccc(Cl)cc1`, in assay [2], the AC50 was more than 100 µM.

Consider `O=C(Nc1ccccc1N1CCOCC1)C1CCCCN1S(=O)(=O)c1ccccc1` (configuration not stated), for which the figures for the AC50 in assay [1] (setting [3]) and in assay [2] were more than 100 µM and 49.8 µM, respectively.

`CN(c1ccc(C(=O)NCc2cccs2)cc1)S(=O)(=O)c1ccccc1` displayed an AC50 in assay [2] of more than 100 µM.

Molecule `Cc1ccc([N+](=O)[O-])c(OCCn2cnc3ccccc32)c1` returned an AC50 in assay [2] of more than 100 µM.

As for `Fc1ccccc1C1CCN(Cc2nc(COc3ccccc3)no2)C1` (configuration not stated), the AC50 in assay [2] was more than 100 µM.

As for `COc1ccc(-c2cc(C(=O)O)nc3ccc4ccccc4c23)cc1OC`, the AC50 in assay [2] is more than 100 µM.

Consider `COc1ccccc1CNC(=O)CN1C(=O)NC(c2ccccc2)(c2ccccc2)C1=O`, for which the AC50 in assay [1] is > 100 µM (inactive); in assay [1] (setting [3]), more than 100 µM.

As for `CCOc1ncccc1C(=O)OCC(=O)NCCCc1ccccc1`, the AC50 in assay [1] is > 100 µM (inactive).

Turning to `O=S1(=O)c2ccc(Br)cc2OCCC2CCCCN21` (configuration not stated), the AC50 in assay [1] is > 100 µM (inactive); in assay [1] (setting [3]) it was more than 100 µM.

Take `COC(=O)c1cc2c(c3c4cc(F)ccc4n(S(=O)(=O)c4ccccc4)c13)C(=O)N(Cc1ccco1)C2`: in assay [1], the AC50 was > 100 µM (inactive).

In turn, `CSc1ccc(CN(C)CC(=O)NC(C)c2ccccc2)cc1` (configuration not stated) showed an AC50 in assay [1] (setting [3]) of more than 100 µM.

`O=C(Nc1ccc2nc(-c3cccnc3)[nH]c2c1)c1ccco1`: in assay [1], the AC50 was > 100 µM (inactive).

For the molecule `Cc1onc(-c2ccccc2Cl)c1C(=O)OCC(=O)c1ccccc1`, the AC50 in assay [1] (setting [3]) was more than 100 µM.

On to `Cc1cc(C(=O)COC(=O)CNC(=O)c2ccccc2)c(C)n1CC1CCCO1` (configuration not stated), for which the AC50 in assay [1] was > 100 µM (inactive).

Take `CC1CCCN(C(=O)C(C)Nc2cc(Cl)ccc2N2CCOCC2)C1` (configuration not stated): in assay [1], the AC50 is > 100 µM (inactive).

In the case of `COc1cccc(NC(=O)C2CCC(CNS(=O)(=O)c3cccc4cccnc34)CC2)c1` (configuration not stated), the AC50 in assay [2] is more than 100 µM.

For `Cc1ccccc1-n1c([C@@H]2C[C@H]2c2ccccc2)n[nH]c1=S`, the AC50 in assay [1] was > 100 µM (inactive).

For `COc1cc(CC(=O)Nc2nc(C)cs2)cc(OC)c1OC`, in assay [1] (setting [3]), the half-maximal activity concentration (AC50) was more than 100 µM.

Take `O=C(CCNc1cccc(Cl)c1)c1cccs1`: the AC50 in assay [1] was > 100 µM (inactive).

In assay [1] (setting [3]), `O=C(Nc1ccn(Cc2ccc(Cl)cc2)n1)c1ccccc1` gave an AC50 of more than 100 µM.

As to `CN(c1ccccc1)S(=O)(=O)c1cccc(NC(=O)CCNC(=O)c2ccc([N+](=O)[O-])cc2)c1`, the AC50 is > 100 µM (inactive) in assay [1] and more than 100 µM in assay [1] (setting [3]).

As for `Cc1noc(NS(=O)(=O)c2ccc(NC(=O)c3cc(-c4ccccc4Cl)nc4ccccc34)cc2)c1C`, the AC50 was > 100 µM (inactive) in assay [1] and more than 100 µM in assay [1] (setting [3]).

Regarding `Cc1ccc(NC(=O)c2ccc([N+](=O)[O-])o2)c(C)c1`, the AC50 in assay [1] was > 100 µM (inactive).

As for `Cc1cc(C(=O)NCCC2=CCCCC2)ccc1[N+](=O)[O-]`, the AC50 in assay [1] was > 100 µM (inactive).

In the case of `Fc1ccc(-c2nc3ccc(Cl)cn3c2Cc2cccc(Cl)c2)cc1`, the concentration at half-maximal activity (AC50) in assay [1] (setting [3]) is more than 100 µM.

With `Cc1ccc(NS(=O)(=O)c2ccc3c(c2)CCC(=O)N3)cc1C`, in assay [1], the AC50 was > 100 µM (inactive).

For the molecule `C=CCNC(=O)c1ccccc1CCc1ccccc1`, the AC50 in assay [1] was > 100 µM (inactive).

On to `CN(C)CCCN(C(=O)COc1ccc(Cl)cc1)c1nc2ccc(F)cc2s1`, for which the AC50 in assay [1] is > 100 µM (inactive).

For `Cc1nc(SCC(=O)Nc2ccc3c(c2)OCCO3)nc(C)c1C`, the results for the AC50 in assay [1] and in assay [1] (setting [3]) were > 100 µM (inactive) and more than 100 µM, respectively.

In the case of `Cc1cc(CNC(=O)c2cc(-c3ccccc3)nc3ccccc23)nn1C`, in assay [1], the AC50 was > 100 µM (inactive).

For the molecule `O=C(c1cnc(Cc2c[nH]c3ccccc23)c(I)c1)N1CCCCC1`, the AC50 in assay [1] is > 100 µM (inactive); in assay [1] (setting [3]), more than 100 µM.

As to `CCCNc1ccc(C(=O)OCC)cc1[N+](=O)[O-]`, the AC50 in assay [1] was > 100 µM (inactive); in assay [1] (setting [3]), more than 100 µM.

On to `O=C1c2ccccc2C(c2nnnn2C2CCCCC2)N1CCc1ccc(O)cc1` (configuration not stated), for which the AC50 in assay [1] was > 100 µM (inactive); in assay [1] (setting [3]) it was more than 100 µM.

For `O=C(CCC1CCCN(C(=O)c2ccsc2)C1)N1CCN(c2ccccn2)CC1` (configuration not stated), the AC50 in assay [1] is > 100 µM (inactive).

Take `O=C1OC[C@@H]2CCCN2C(=O)[C@@H](CC(=O)N(CCO)Cc2ccccc2)C/C=C\C[C@H]1Cc1ccc(F)cc1`: the AC50 in assay [1] was > 100 µM (inactive).

In turn, `COc1ccc(C(NC(=O)C2CCN(CCOc3ccc(Cl)cc3Cl)CC2)c2ccccc2C)cn1` (configuration not stated) displayed an AC50 in assay [1] (setting [3]) of more than 100 µM.

With `COCC#Cc1ccc2c(c1)O[C@@H](CN(C)S(=O)(=O)c1cccc(F)c1)[C@@H](C)CN([C@H](C)CO)S2(=O)=O`, the AC50 in assay [1] (setting [3]) is more than 100 µM.

`COc1ccccc1Cc1c(-c2ccc(F)cc2)nc2ccc(Br)cn12`: the AC50 in assay [1] was > 100 µM (inactive).

For `Cc1ccc(NC(=O)c2ccc([N+](=O)[O-])s2)cc1S(=O)(=O)N1CCOCC1`, the AC50 is > 100 µM (inactive) in assay [1] and more than 100 µM in assay [1] (setting [3]).

Take `CCCc1nc2oc3c(NCCCN(C)C)ncnc3c2c2c1CCCC2`: the AC50 is > 100 µM (inactive) in assay [1] and more than 100 µM in assay [1] (setting [3]).

In the case of `Nc1nc(Nc2ccccc2F)nc(N2CCOCC2)c1[N+](=O)[O-]`, the AC50 in assay [1] was > 100 µM (inactive).

In the case of `CC(C)(C)c1ccc(-c2noc(CCC(=O)NCc3ccco3)n2)cc1`, the AC50 in assay [1] is > 100 µM (inactive).

Take `CC(=O)Nc1ccc(OCC(=O)N2CCC(Cc3ccccc3)CC2)cc1`: in assay [1], the AC50 is > 100 µM (inactive).

`Cc1cccc(NC(=O)c2sc3nc(-c4ccccc4)cn3c2C)n1` yielded an AC50 in assay [1] (setting [3]) of more than 100 µM.

In the case of `CCc1cccc(NC(=O)c2ccc3c(=O)n4c(nc3c2)CCCCC4)c1`, the AC50 in assay [1] is > 100 µM (inactive).

For the molecule `COc1ccc(C2CC(c3cccs3)=Nc3ccccc3S2)cc1` (configuration not stated), the AC50 in assay [1] (setting [3]) is more than 100 µM.

Turning to `CCCCOc1ccc(-c2nnn(CCC(=O)N3CCOCC3)n2)cc1`, the AC50 in assay [1] (setting [3]) is more than 100 µM.

As to `CC(C)(C)CC(=O)NCCc1csc(-c2ccccc2)n1`, the AC50 in assay [1] was > 100 µM (inactive).

`Cc1nonc1C1CCCN1C(=O)c1cc(COc2ccc(F)cc2F)on1` (configuration not stated): in assay [1], the AC50 is > 100 µM (inactive).

For the molecule `Cc1ccc(S(=O)(=O)NCc2c(-c3ccccc3)noc2C)cc1`, the AC50 in assay [1] is > 100 µM (inactive).

For `COc1ccc(OC)c(NC(=O)CN(C)CC(=O)Nc2ccccc2Br)c1`, the AC50 in assay [1] is > 100 µM (inactive).

On to `CCOc1cccc(-c2cc(-c3n[nH]c(=S)n3CC)c3ccccc3n2)c1`, for which, in assay [1], the AC50 is > 100 µM (inactive).

As usually defined, the AC50 is the midpoint of the concentration-response curve, whichever way the signal moves.
